Assay results: patent US20250213546A1, “TREATING CANCER WITH SMALL MOLECULES THAT INHIBIT ACSS-2” (DREXEL UNIVERSITY, priority 2022, published 2025)
Like-named read-outs stand apart in the source and are kept apart here.

Columns and labels:
[1] = molecular target: hACSS-2 (Homo sapiens (Human), UniProt Q9NR19); experiment: Surface plasmon resonance (SPR) binding to immobilized hACSS-2
Method: SPR characterization. All binding assays were performed on a ProteOn XPR36 SPR Protein Interaction Array System (Bio-Rad Laboratories, Hercules, CA, USA). The instrument temperature was set at 25° C. for all kinetic analyses. ProteOn GLH sensor chips were preconditioned with two short pulses each (10 s) of 50 mM NaOH, 100 mM HCl, and 0.5% sodium dodecyl […]. Then the system was equilibrated with running buffer (1×PBS pH 7.4, 3% DMSO and 0.005% polysorbate 20). The surface of a GLH sensor chip was activated with a 1:100 dilution of a 1:1 mixture of 1-ethyl-3-(3-dimethylaminopropyl) carbodiimide hydrochloride (0.2 M) and sulfo-N-hydroxysuccinimide (0.05 M). […] Then, after unreacted protein had been washed out, excess active ester groups on the sensor surface were capped by a 5 min injection of 1M ethanolamine HCl (pH 8.0) at a flow rate of 5 μL/min. A reference surface was similarly created by immobilizing a nonspecific protein (IgG b12 anti-HIV-1 gp120; was obtained through the NIH AIDS Reagent Program, Division of AIDS, NIAID, NIH: Anti-HIV-1 gp120 Monoclonal (IgG1 b12) from Dr. Dennis Burton and Carlos Barbas) and was used as a background to correct nonspecific binding. Serial dilutions of hACSS-2 inhibitors were then prepared in the running buffer and injected at a flow rate of 100 μL/min, for a 50 s association phase, followed by up to a 5 min dissociation phase using the “one-shot kinetics” capability of the ProteOn instrument. Data were analyzed using the ProteOn Manager Software version 3.0 (Bio-Rad). The responses from the reference flow cell were subtracted to account for the nonspecific binding and injection artifacts. Experimental data were fitted to a simple 1:1 binding model. Experiments were performed in triplicate to detect kinetic and equilibrium dissociation constants (KD).
Overproduction of hACSS-2 was achieved using a prokaryotic expression system. […] The bacterial expressions were then spun down, the supernatant discarded, and the pellets resuspended. After the cells were lysed via sonication, the sample was subjected to ultracentrifugation, and the clarified lysate was applied to a Talon cobalt resin affinity column (Clonetech Laboratories, Mountain View, CA). The bound protein was eluted from the column using 1×PBS pH 7.4 with 0.3 M imidazole, then dialyzed overnight into 20 mM Tris-HCl pH 8.0, concentrated to 10 mg/mL, aliquoted, and stored at −80° C.

[2] = Human liver microsome stability; format: in vitro ADME; details: 60 min, given as fraction
Method: (§1) Metabolic Stability and Plasma Stability. Test compound Working solution: 5 μL of compound stock solution (10 mM in dimethyl sulfoxide (DMSO)) were diluted with 495 μL of DMSO (Working solution concentration: 100 μM, 100% DMSO). Propantheline bromide Working solution: 5 μL of Propantheline bromide stock solution (10 mM in H2O) were diluted with 495 μL of H2O (Working solution concentration: 100 μM, 100% H2O)

[3] = Human plasma stability; format: in vitro ADME; details: both sexes, 37° C., up to 120 min, read-out: Human Plasma Stability T1/2
Method: as §1
Human plasma from 3 males and 3 females was obtained. Heparin was used as the anticoagulant. The pooled frozen plasma was thawed in a water bath at 37° C. prior to experiment. Plasma was centrifuged at 4000 rpm for 5 min and the clots were removed if any. Using an Apricot automation workstation, 98 μL/well of blank plasma were added to all 96-well reaction plates. (Blank, T0, T10, T30, T60 and T120). The appointed incubation time points are T0 (0 min), Tn (n=0, 10, 30, 60, 120 min). An Apricot automation workstation was used to add 2 μL/well of working solution (100 μM) to all reaction plates except Blank. (T0, T10, T30, T60 and T120). All reaction plates containing mixtures of compound and plasma were incubated at 37° C. in water bath. The reaction plates were incubated at 37° C., and timer was started. At the end of incubation, 500 μL of stop solution was added and mixed (200 ng/mL tolbutamide and 200 ng/ml labetalol in ACN) to precipitate protein. Each plate was sealed and shaken for 20 minutes. After shaking, each plate was centrifuged at 4000 rpm and 4° C. for 20 minutes. After centrifugation, an Apricot automation workstation was used to transfer 150 μL of supernatant from each reaction plate to its corresponding bioanaylsis plate. Each bioanalysis plate was sealed and shaken for 10 minutes prior to LC-MS/MS analysis. The % remaining of test compound after incubation in plasma was calculated using following equation: Remaining=100×(PAR at appointed incubation time/PAR at T0 time) where PAR is the peak area ratio of analyte versus internal standard (IS).

[4] = test system: MDR1-MDCK I cells; experiment: in vitro; details: dog, MDCK-MDR1, 1.5 h, 2 µM, pH 7.4
Method: (§2) MDCKI MDR1 cell permeability assessment was performed to mimic the blood brain barrier. MDR1-MDCK I cells were seeded onto […] (PET) in 96-well Corning insert systems at 2.5×10^5 cells/mL until to 4-7 days for confluent cell monolayer formation. The transport buffer in the study was HBSS with 10.0 mM HEPES at pH 7.40+0.05. Test compounds were tested at 2.00 μM bi-directionally in duplicate. […] Final DMSO concentration was adjusted to less than 1%. The plate was incubated for 1.5 hours in CO2 incubator at 37±1° C., with 5% CO2 at saturated humidity without shaking. All samples after mixed with acetonitrile containing internal standard were centrifuged at 3220×g for 10 min. For all samples, 150 μL supernatant solution was diluted with 150 μL ultra-pure water for LC-MS/MS analysis. In addition, the efflux ratio of each compound was also determined. Test and reference compounds were quantified by LC-MS/MS analysis based on the peak area ratio of analyte/IS. After transport assay, Lucifer yellow rejection assay are applied to determine the cell monolayer integrity. Buffers are removed from both apical and basolateral chambers, followed by the addition of 75 μL of 100 μM lucifer yellow in transport buffer and 250 μL transport buffer in apical and basolateral chambers, respectively. […] After 30 minutes incubation, 20 μL of lucifer yellow samples are taken from the apical sides, followed by the addition of 60 μL of Transport Buffer. And then 80 μL of lucifer yellow samples are taken from the basolateral sides.
(§3) The apparent permeability coefficient Papp (cm/s) was calculated using the equation: Papp=(dCr/dt)×Vr/(A×C0) where dCr/dt is the cumulative concentration of compound in the receiver chamber as a function of time (μM/s); Vr is the solution volume in the receiver chamber (0.075 mL on the apical side, 0.25 mL on the basolateral side); A is the surface area for the transport, i.e. 0.0804 cm^2 for the area of the monolayer; CO is the initial concentration in the donor chamber (μM). […] Percent of lucifer yellow in basolateral well is calculated using the equation: Where RFUApical and RFUBasolateral are the relative fluorescence unit values of lucifer yellow in the apical and basolateral wells, respectively; VApical and VBasolateral are the volume of apical and basolateral wells (0.075 mL and 0.25 mL), respectively. The % Lucifer Yellow should be less than 1.0.

[5] = test system: MDR1; experiment: in vitro; details: dog
Method: as §2, §3

Sequence of hACSS-2 (Q9NR19 whole entry): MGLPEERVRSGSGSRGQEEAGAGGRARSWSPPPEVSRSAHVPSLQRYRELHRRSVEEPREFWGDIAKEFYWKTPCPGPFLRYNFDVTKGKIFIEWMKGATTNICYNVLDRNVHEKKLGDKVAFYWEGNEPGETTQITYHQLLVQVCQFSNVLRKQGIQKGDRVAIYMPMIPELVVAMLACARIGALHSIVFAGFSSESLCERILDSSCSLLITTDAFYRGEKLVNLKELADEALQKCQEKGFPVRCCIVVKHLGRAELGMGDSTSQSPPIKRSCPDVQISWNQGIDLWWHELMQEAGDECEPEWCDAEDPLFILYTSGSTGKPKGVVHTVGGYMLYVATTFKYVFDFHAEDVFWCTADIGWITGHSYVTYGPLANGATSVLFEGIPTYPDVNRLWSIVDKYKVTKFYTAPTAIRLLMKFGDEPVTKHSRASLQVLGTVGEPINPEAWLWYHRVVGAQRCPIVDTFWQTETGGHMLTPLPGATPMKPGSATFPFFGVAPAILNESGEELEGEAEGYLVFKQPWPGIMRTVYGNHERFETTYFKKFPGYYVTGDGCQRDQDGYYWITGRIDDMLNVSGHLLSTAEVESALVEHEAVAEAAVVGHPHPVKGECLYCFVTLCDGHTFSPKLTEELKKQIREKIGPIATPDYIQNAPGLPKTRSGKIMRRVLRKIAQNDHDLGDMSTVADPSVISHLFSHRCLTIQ

SMILES: N[C@H](C(=O)N1CCCC(c2ccccc2)(c2ccccc2)C1)C1CC1 [AD-8007]
- koff ([1]; 1:1 binding model, mean, n = 3): 0.547 s⁻¹
- kon ([1]; 1:1 binding model, mean, n = 3): 4790 M⁻¹ s⁻¹
- Kd ([1]; Langmuir isotherm equilibrium fit, mean, n = 3, read-out: KD [μM] equilibrium): 117 µM
- Kd ([1]; global fit, mean, n = 3, read-out: KD [μM] kinetic/global): 149 µM
- Kd ([1]; read-out: Affinity (KD in μM) for hACSS-2 mean ± SD (n = 3), SPR, one site binding model isotherm, triplicate): 89 ± 20 µM
- Human Liver Microsome Stability Remaining(T = 60 min) [2]: 0.7723
- Human Liver Microsome Stability Remaining(NCF = 60 min) ([2]; NCF): 0.9563
- half-life at 2 µM [3]: > 4.82 h
- Note (efflux / BBB assessment) [4]: AD 8007 has a low efflux ratio
- efflux ratio at 1.5 h, 2 µM ([5]; MDCK-MDR1, pH 7.4): 8.96
- recovery at 1.5 h, 2 μM ([5]; MDCK-MDR1, pH 7.4, Mean % Solution Recovery A to B): 81.3%
- recovery at 1.5 h, 2 μM ([5]; MDCK-MDR1, pH 7.4, Mean % Solution Recovery B to A): 97%
